Source: ChEMBL document CHEMBL1153691, “2-Deoxyadenylyl-(35)-isodideoxyadenosine, a unique dinucleotide: Synthesis, enzymology, and conformational studies” (Bioorg Med Chem Lett, 1995)
pKi: −log10 of the molar value.

What was measured:
[1] = system: bovine spleen phosphodiesterase; assay: Enzymatic stability was assessed with bovine spleen phosphodiesterase (BS PDE) exonuclase; type: ADME, Bos taurus; conditions: cattle, bovine spleen phosphodiesterase (BS PDE) exonuclease
[2] = system: snake venom phosphodiesterase; assay: Enzymatic stability was assessed with snake venom phosphodiesterase (SV PDE) exonuclase; type: ADME; conditions: serpentes, snake venom phosphodiesterase (SV PDE) exonuclease
[3] = target: Human immunodeficiency virus type 1 reverse transcriptase (Human immunodeficiency virus 1, UniProt Q72547); assay: Inhibitory activity against HIV reverse transcriptase (HIV RT)

pKi [3] | Compound | half-life [1] [min] | half-life [2] [min]
 | Nc1ncnc2c1ncn2[C@@H]1CO[C@H](COP(=O)([O-])OC2C[C@H](n3cnc4c(N)ncnc43)OC2CO)C1.[Na+] (stereo not given in full) | 50 | > 550
 | Nc1ncnc2c1ncn2[C@H]1C[C@H](OP(=O)(O)OC[C@H]2O[C@@H](n3cnc4c(N)ncnc43)C[C@@H]2O)[C@@H](CO)O1 | 1.5 | < 1
7.80 | Nc1ncnc2c1ncn2C1COC(COP(=O)(O)OP(=O)(O)OP(=O)(O)O)C1 (stereo not given) |  | 
